# Marks after values point to notes of the source that are not given here.
# Assays:
# [1] = DHEA administration in humans (50 mg); cited from earlier work
# [2] = tested on: healthy male smokers; assay: Pilot study of one-time DHEA or PG after overnight abstinence from cigarettes: craving measures; format: in vivo, human; settings: one-time 400 mg; vs. placebo
# Protocol: Elaborating, a pilot study is provided herein, which involves administering one-time DHEA (400 mg), PG (400 mg) or placebo to healthy male smokers following overnight abstinence from cigarettes. […] Thus, neuroactive steroids can be candidate therapeutic molecules for smoking cessation.
# [3] = tested on: brain; settings: in vivo; cited from earlier work
# [4] = tested on: subjects with schizophrenia or schizoaffective disorder
# [5] = single dose of PG 175 mg; over the course of 5-8 hours; cited from earlier work
# [6] = tested on: subjects with schizophrenia or schizoaffective disorder; assay: Randomized placebo-controlled double-blind trial of adjunctive PG: negative and cognitive symptoms (SANS, BACS, MATRICS); format: in vivo, human
# Source text: Of 21 subjects randomized, 18 completed at least four weeks of treatment (n=9 per group). […] Increases in serum PG levels were positively correlated with cognitive improvement in the PG group, predicting both BACS (r=0.79, n=9, p=0.02; see FIG. 3A) and MATRICS (r=0.70, n=9, p=0.05; see FIG. 3B) composite scores at eight weeks. The mean BACS z-score increase for the PG group was 0.60 (vs. 0.22 for the placebo group). BACS and MATRICS assessments were correlated (r=0.74, p<0.0001).
# [7] = tested on: rat frontal cortex; assay: Neuroactive steroid levels in frontal cortex after chronic lithium or valproate (GC/MS preceded by HPLC); format: in vivo, Male Wistar Kyoto rats; settings: chronic administration four weeks, n=9
# Protocol: Lithium and Valproate Administration.
# NS analyses in rat and mouse frontal cortex were performed as described in Marx et al., 2006a; Marx et al., 2006b; and Marx et al., 2006c. Rodent brain tissue was homogenized in 5 volumes of distilled water containing about 2200 cpm (4400 dpm/injection) of tritiated NS (Perkin Elmer, Waltham, Mass.) to detect the HPLC fraction containing the NS of interest. Deuterated ALLO (D4-ALLO, 400 pg) and deuterated PG (D4-PG, 400 pg) were used as internal standards. Supernatants were extracted three times with three volumes of ethyl acetate and dried under nitrogen prior to HPLC purification. […] The limit of NS detection with this method was 2 pg for ALLO and 10 pg for PG. Mean intra-assay coefficients of variation were 3.9% for ALLO and 3.0% for PG.
# Statistical Analysis. For rat experiments utilizing chronic lithium and valproate administration, data were analyzed by ANOVA with post-hoc Dunnett tests. Data from Bcl-2 knockout mouse experiments were analyzed by unpaired t-tests.
# To that end, NS levels (ALLO and PG) were determined in frontal cortex by negative ion chemical ionization gas chromatography/mass spectrometry in male Wistar Kyoto rats treated chronically with lithium, valproate, or vehicle. NS were also investigated in heterozygous Bcl-2 knockout mice.
# [8] = Serum drug levels after chronic lithium or valproate in chow; settings: chow 1.2 then 2.4 g Li2CO3/kg, four weeks; measured by atomic absorption
# Source text: Lithium and Valproate Administration. […] Animals were fed with control rodent chow or chow containing a low dose of lithium (1.2 g Li2CO3/kg) or valproate (10 g/kg) for one week to allow the animals to slowly acclimate to the drug, and were then fed with chow containing a full dose of lithium (2.4 g Li2CO3/kg) or valproate (20 g/kg) for three weeks. On the last day of the treatment, animals were sacrificed, and trunk blood was collected to measure lithium and valproate levels in the serum.
# [9] = change from baseline (Hillside AE Form), n = 9
# [10] = change from baseline (Hillside AE Form), n = 9, mild in all subjects
smiles,measurement,setting,value
"C[C@]12CC[C@H](O)CC1=CC[C@@H]1[C@@H]2CC[C@]2(C)C(=O)CC[C@@H]12 [DHEA, dehydroepiandrosterone]",increase of ALLO,[1],three-fold
same,craving measures following overnight smoking cessation,[2],attenuates craving measures
CNCCC(Oc1ccc(C(F)(F)F)cc1)c1ccccc1 (stereo not shown) [Fluoxetine],effect on brain ALLO levels and PG levels,[3],elevates
"CC(=O)[C@H]1CC[C@H]2[C@@H]3CC=C4C[C@@H](O)CC[C@]4(C)[C@H]3CC[C@]12C [PG, pregnenolone]",increase in serum ALLO levels after PG administration,"eight weeks of PG vs. baseline, schizophrenia subjects",over 5 fold
same,PGS levels after PG administration,"subjects with schizophrenia, baseline vs. 10 weeks",significantly increased
same,"AIMS, Barnes Akathisia Scale, Simpson-Angus Scale, blood pressure, pulse, or weight",[4]; PG administration,did not result in a significant change
same,tolerability,"[4]; PG group, n=9",well-tolerated
same,"glucose level, average post-treatment",[4]; average baseline 117.9 mg/dl,119.0 mg/dL
same,"cholesterol, average post-treatment",[4]; average baseline 185.8 mg/dl,164.6 mg/dL
same,QTc intervals on EKG,[4]; baseline (visit 1) vs. week 10 (visit 6),did not negatively impact
same,Akathisia,[4]; [9],0 N (%)
same,All Other Side Effects,[4]; [9],0 N (%)
same,Blurred Vision,[4]; [9],0 N (%)
same,Diarrhea,[4]; [9],0 N (%)
same,Drowsiness,[4]; [9],0 N (%)
same,Excitation/Agitation,[4]; [9],0 N (%)
same,Headache,[4]; [9],0 N (%)
same,Impaired Sexual Performance,[4]; [9],0 N (%)
same,Insomnia,[4]; [9],0 N (%)
same,Joint Pain/Stiffness,[4]; [9],0 N (%)
same,Malaise,[4]; [9],0 N (%)
same,Nasal Congestion,[4]; [9],0 N (%)
same,Peripheral Edema,[4]; [9],0 N (%)
same,Rigidity,[4]; [9],0 N (%)
same,Sweating,[4]; [9],0 N (%)
same,Tremor,[4]; [9],0 N (%)
same,Hypertension,"[4]; change from baseline (Hillside AE Form), n = 9, mild (<145/90)",1 (11%)^b N (%)
same,Cold Extremities,[4]; [10],1 (11%)^a N (%)
same,Decreased Interest in Sex,[4]; [10],1 (11%)^a N (%)
same,Dry mouth,[4]; [10],1 (11%)^a N (%)
same,Muscle Pain/Stiffness,[4]; [10],1 (11%)^a N (%)
same,Restlessness,[4]; [10],2 (22%)^a N (%)
same,"Disorientation (to date, address, mayor, or MD name)","[4]; change from baseline pre-randomization (Hillside AE Form), n = 9, mild in all subjects",2 (22%)^a N (%)
same,change of serum PG levels,[5],approximately doubled
same,craving measures following overnight smoking cessation,[2],attenuates craving measures
same,mean change in SANS scores (improvement),"[6]; PG 50 to 250 mg BID for 8 weeks added to second generation antipsychotics, n=9, placebo 2.33, p=0.05",10.38
same,mean BACS z-score increase,"[6]; PG group, placebo group 0.22",0.60
[Li] [lithium],mean ALLO levels in rat frontal cortex,"[7]; 0.75 SEM, vehicle 0.71 ng/g, post-hoc Dunnett p<0.05",2.42 ng/g
same,mean PG levels in rat frontal cortex,"[7]; ±2.95 SEM, vehicle 3.37 ng/g, post-hoc Dunnett p=0.09",8.19 ng/g
same,serum lithium level,[8],0.74 ±0.31 mEq/l

# Source: patent US20090203658A1, “NEUROACTIVE STEROID COMPOSITIONS AND METHODS OF USE THEREFOR” (Duke University, priority 2007, published 2009)
